Measured values as given in patent US20250332300A1 (priority 2024, published 2025).
Where a name gives a salt, the structure may show the parent alone. Read-outs that look alike come from different tables or passages of the source.

How the values were obtained:
[1] = biological target: T1, human HER2 (23-652) (Homo sapiens, UniProt P04626); test: Surface plasmon resonance (SPR) for assessment of peptide affinity, human HER2; format: binding; set-up: towards human HER2 (23-652) and mouse HER2 (23-653); made in house
Summary of the method: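 Binding kinetics fitted from sensorgrams with 280 s peptide association then 3000 s dissociation (30 uL/min), using HER2 (23-652) either directly immobilized (SA/CM5) or anti-Fc-captured; 3 M magnesium chloride used for regeneration.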

[2] = biological target: T2, mouse HER2 (23-653) (Mus musculus, UniProt P70424); test: Surface plasmon resonance (SPR) for assessment of peptide affinity, mouse HER2; format: binding; set-up: mouse HER2 (23-653) using a Cy5 labeled peptide as a probe; made in house
Text: Each protein was immobilized either onto a SA sensorchip (Cytiva, BR-1005-31) or CM5 sensorchip (Cytiva, BR-1005-30) to a density of 800-2000 RU.

[3] = biological target: T1, human HER2 (23-652); test: TR-FRET competition assay for peptide potency, human HER2; format: binding; set-up: towards human HER2 (23-652) and mouse HER2 (23-653); made in house; host or cells: mammalian cells
[4] = biological target: T2, mouse HER2 (23-653); test: TR-FRET competition assay for peptide potency, mouse HER2; format: binding; set-up: mouse HER2 (23-653) using a Cy5 labeled peptide as a probe; made in house; host or cells: mammalian cells
[5] = amide bond, 30-membered ring, PyAOP/DIEA, DMF, resin, […], 50.0 °C, with chain assembly
[6] = SPR, human HER2 extracellular domain, 25° C., 1:1 binding model, read-out: huHER2-SPR-ONC KD
[7] = SPR, mouse HER2 extracellular domain, 25° C., 1:1 binding model, read-out: moHER2-SPR-ONC KD
[8] = value in parentheses (**): recalculated after further repetition, read-out: huHER2 TR-FRET IC50, recalculated value achieved after further repetition
[9] = TR-FRET competition with Cy5 labeled peptide probe, 0.1 nM mouse HER2, 24 h incubation, read-out: moHER2 TR-FRET IC50

“2-(4-(((11S,48S)-48-((S)-2-((3S,6S,9S,12S,15S,18S,21S,24S,27S)-9-((1H-indol-3-yl)methyl)-27-acetamido-15-(4-acetamidobutyl)-12-((5-hydroxy-1H-indol-3-yl)methyl)-24-(4-hydroxybenzyl)-6-((S)-1-hydroxyethyl)-21-(hydroxymethyl)-N,4,16,19-tetramethyl-5,8,11,14,17,20,23,26,30-nonaoxo-18-phenethyl-1,4,7,10,13,16,19,22,25-nonaazacyclotriacontane-3-carboxamido)-3-(4-fluorophenyl)propanamido)-11-carbamoyl-5,13,47-trioxo-1-((3aS,4S,6aR)-2-oxohexahydro-1H-thieno[3,4-d]imidazol-4-yl)-16,19,22,25,28,31,34,37,40,43-decaoxa-6,12,46-triazadopentacontan-52-yl) carbamoyl) piperazin-1-yl) acetic acid TFA salt” showed a ring closure, yield after HPLC [5] of 1.9%.

Compound “2-(4-(((S)-5-((S)-2-((3S,6S,9S,12S,15S,18S,21S,24S,27S)-9-((1H-indol-3-yl)methyl)-15-(4-acetamidobutyl)-27-(3-aminopropanamido)-12-((5-hydroxy-1H-indol-3-yl)methyl)-24-(4-hydroxybenzyl)-6-((S)-1-hydroxyethyl)-21-(hydroxymethyl)-N,4,16,19-tetramethyl-5,8,11,14,17,20,23,26,30-nonaoxo-18-phenethyl-1,4,7,10,13,16,19,22,25-nonaazacyclotriacontane-3-carboxamido)-3-(4-fluorophenyl)propanamido)-6-amino-6-oxohexyl)carbamoyl)piperazin-1-yl) acetic acid TFA salt” has a ring closure, yield after HPLC (amide bond, 30-membered ring, DIC/Oxyma, DMF, resin, […], 75.0 °C, with chain assembly) of 4.7%.

In the case of “2-(4-(((S)-5-((S)-2-((3S,6S,9S,12S,15S,18S,21S,24S,27S)-9-((1H-indol-3-yl)methyl)-15-(4-acetamidobutyl)-27-(5,39-dioxo-43-((3aS,4S,6aR)-2-oxohexahydro-1H-thieno[3,4-d]imidazol-4-yl)-8,11,14,17,20,23,26,29,32,35-decaoxa-4,38-diazatritetracontanamido)-12-((5-hydroxy-1H-indol-3-yl)methyl)-24-(4-hydroxybenzyl)-6-((S)-1-hydroxyethyl)-21-(hydroxymethyl)-N,4,16,19-tetramethyl-5,8,11,14,17,20,23,26,30-nonaoxo-18-phenethyl-1,4,7,10,13,16,19,22,25-nonaazacyclotriacontane-3-carboxamido)-3-(4-fluorophenyl)propanamido)-6-amino-6-oxohexyl)carbamoyl)piperazin-1-yl) acetic acid TFA salt”, the ring closure, yield after HPLC [5] is reported as 0.5%.

For “2-((1E,3E)-5-((E)-1-(6-((3-(((3S,6S,9S,12S,15S,18S,21S,24S,27S)-9-((1H-indol-3-yl)methyl)-15-(4-acetamidobutyl)-3-(((S)-1-(((S)-1-amino-6-(4-(carboxymethyl)piperazine-1-carboxamido)-1-oxohexan-2-yl)amino)-3-(4-fluorophenyl)-1-oxopropan-2-yl)(methyl)carbamoyl)-12-((5-hydroxy-1H-indol-3-yl)methyl)-24-(4-hydroxybenzyl)-6-((S)-1-hydroxyethyl)-21-(hydroxymethyl)-4,16,19-trimethyl-5,8,11,14,17,20,23,26,30-nonaoxo-18-phenethyl-1,4,7,10,13,16,19,22,25-nonaazacyclotriacontan-27-yl)amino)-3-oxopropyl)amino)-6-oxohexyl)-3,3-dimethyl-5-sulfoindolin-2-ylidene)penta-1,3-dien-1-yl)-1-ethyl-3,3-dimethyl-3H-indol-1-ium-5-sulfonate TFA salt”, the ring closure, yield after HPLC [5] was 2%.

“2-((1E,3E)-5-((E)-1-(6-(((S)-5-((S)-2-((3S,6S,9S,12S,15S,18S,21S,24S,27S)-9-((1H-indol-3-yl)methyl)-27-acetamido-15-(4-acetamidobutyl)-12-((5-hydroxy-1H-indol-3-yl)methyl)-24-(4-hydroxybenzyl)-6-((S)-1-hydroxyethyl)-21-(hydroxymethyl)-N,4,16,19-tetramethyl-5,8,11,14,17,20,23,26,30-nonaoxo-18-phenethyl-1,4,7,10,13,16,19,22,25-nonaazacyclotriacontane-3-carboxamido)-3-(4-fluorophenyl)propanamido)-6-amino-6-oxohexyl)amino)-6-oxohexyl)-3,3-dimethyl-5-sulfoindolin-2-ylidene)penta-1,3-dien-1-yl)-1-ethyl-3,3-dimethyl-3H-indol-1-ium-5-sulfonate” gave a ring closure, yield after HPLC [5] of 1.7%.

“4-(((3S,6S,9S,12S,15S,18S,21S,24S,27S)-9-((1H-indol-3-yl)methyl)-15-(4-acetamidobutyl)-6-cyclopropyl-3-(((S)-1-(((S)-1,6-diamino-1-oxohexan-2-yl)amino)-3-(4-fluorophenyl)-1-oxopropan-2-yl)(methyl)carbamoyl)-12-((5-hydroxy-1H-indol-3-yl)methyl)-24-(4-hydroxybenzyl)-21-(hydroxymethyl)-4,16,19-trimethyl-5,8,11,14,17,20,23,26,31-nonaoxo-18-phenethyl-1,4,7,10,13,16,19,22,25-nonaazacyclohentriacontan-27-yl)amino)-4-oxobutanoic acid TFA salt” gave a ring closure, yield after HPLC (amide bond, 31-membered ring, PyAOP/Et3N, then TFA, DCM, 0.79 mM, 2 steps) of 61%.

With `CC(=O)NCCCC[C@H]1C(=O)N[C@@H](Cc2c[nH]c3ccc(O)cc23)C(=O)N[C@@H](Cc2c[nH]c3ccccc23)C(=O)N[C@@H]([C@H](C)O)C(=O)N(C)[C@H](C(=O)N(C)[C@@H](Cc2ccc(F)cc2)C(=O)N[C@@H](CCCCNC(=O)CN2CCN(CC(=O)O)CCN(CC(=O)O)CCN(CC(=O)O)CC2)C(N)=O)CNC(=O)CC[C@H](NC(C)=O)C(=O)N[C@@H](Cc2ccc(O)cc2)C(=O)N[C@@H](CO)C(=O)N(C)[C@@H](CCc2ccccc2)C(=O)N1C` [Example C25] the Kd [1, 6] was 0.6 nM, the Kd [2, 7] was 2 nM and the IC50 [3, 8] was 0.9 nM. For the same compound, the IC50 [4, 9] was 6.1 nM and the IC50 ([4]; value in parentheses (**): recalculated after further repetition, read-out: moHER2 TR-FRET IC50, recalculated value achieved after further repetition) was 3.7 nM.

For `CC(=O)NCCCC[C@H]1C(=O)N[C@@H](Cc2c[nH]c3ccc(O)cc23)C(=O)N[C@@H](Cc2c[nH]c3ccccc23)C(=O)N[C@@H]([C@H](C)O)C(=O)N(C)[C@H](C(=O)N(C)[C@@H](Cc2ccc(F)cc2)C(=O)N[C@@H](CCCCNC(=O)N2CCN(CC(=O)O)CC2)C(N)=O)CNC(=O)CC[C@H](NC(=O)CCNC(=O)CN2CCN(CC(=O)O)CCN(CC(=O)O)CCN(CC(=O)O)CC2)C(=O)N[C@@H](Cc2ccc(O)cc2)C(=O)N[C@@H](CO)C(=O)N(C)[C@@H](CCc2ccccc2)C(=O)N1C` [Example C28], the Kd [1, 6] was 0.6 nM, the Kd [2, 7] was 3.1 nM and the IC50 [3, 8] was 1.3 nM. The IC50 [4, 9] was 4.4 nM.

With `CC(=O)NCCCC[C@H]1C(=O)N[C@@H](Cc2c[nH]c3ccc(O)cc23)C(=O)N[C@@H](Cc2c[nH]c3ccccc23)C(=O)N[C@@H](C2CC2)C(=O)N(C)[C@H](C(=O)N(C)[C@@H](Cc2ccc(F)cc2)C(=O)N[C@@H](CCCCNC(=O)c2ccc(F)nc2)C(N)=O)CNC(=O)CCC[C@H](NC(C)=O)C(=O)N[C@@H](Cc2ccc(O)cc2)C(=O)N[C@@H](CO)C(=O)N(C)[C@@H](CCc2ccccc2)C(=O)N1C` [Example F1] the Kd [1, 6] was under 0.1 nM, the Kd [2, 7] was 0.3 nM and the IC50 ([3]; read-out: huHER2 TR-FRET IC50) was under 0.1 nM. It also gave an IC50 [4, 9] of 0.2 nM.

In the case of `COCCOCCOCCOCCOCCOCCOCCOCCOCCOCCOCCOCCC(=O)N[C@H]1CCCC(=O)NC[C@@H](C(=O)N(C)[C@@H](Cc2ccc(F)cc2)C(=O)N[C@@H](CCCCNC(=O)c2ccc([N+](C)(C)C)nc2)C(N)=O)N(C)C(=O)[C@H](C2CC2)NC(=O)[C@H](Cc2c[nH]c3ccccc23)NC(=O)[C@H](Cc2c[nH]c3ccc(O)cc23)NC(=O)[C@H](CCCCNC(C)=O)N(C)C(=O)[C@H](CCc2ccccc2)N(C)C(=O)[C@H](CO)NC(=O)[C@H](Cc2ccc(O)cc2)NC1=O` [Example F4, TFA salt], the Kd [1] is reported as under 0.1 nM, the Kd [2] is reported as 0.1 nM and the IC50 ([3]; huHER2 TR-FRET IC50, TR-FRET competition with Cy5 labeled peptide probe, 0.1 nM human HER2, 24 h incubation) is reported as under 0.1 nM. For the same compound, the IC50 ([4]; moHER2 TR-FRET IC50, TR-FRET competition with Cy5 labeled peptide probe, 0.1 nM mouse HER2, 24 h incubation) was 0.3 nM.

“(3R,6S,9S,12S,15S,18S,21S,24S,27S)-9-((1H-indol-3-yl)methyl)-27-acetamido-N—((S)-1-amino-3-(4-fluorophenyl)-1-oxopropan-2-yl)-6-cyclopropyl-12-((5-hydroxy-1H-indol-3-yl)methyl)-24-(4-hydroxybenzyl)-15,21-bis(hydroxymethyl)-N,4,16,19-tetramethyl-5,8,11,14,17,20,23,26,30-nonaoxo-18-phenethyl-1-thia-4,7,10,13,16,19,22,25,29-nonaazacyclohentriacontane-3-carboxamide” gave a ring closure, yield after HPLC (thioether bond, 31-membered ring, DIEA, ACN/water, […], with chain assembly) of 6%.
